Measurements published in patent US6413989B1, “Piperidinylmethyloxazolidinone derivative” (Merck Patent Gesellschaft mit beschrankter Haftung, priority 1997, dated 2002).
Read-outs that look alike come from different tables or passages of the source.

Experiments:
[1] = target: T1, polyamine binding site (ifenprodil binding site at the NMDA receptor/ion channel complex) (Rattus norvegicus, UniProt P35439+Q00960); experiment: Ifenprodil binding ([3H]-ifenprodil displacement, rat forebrain membranes)
T1 construct: Homogenates of rat forebrain were centrifuged repeatedly; from tissue; host or cells: rat forebrain membranes
T1 sequence (Q00960 27-1482, other chains not shown): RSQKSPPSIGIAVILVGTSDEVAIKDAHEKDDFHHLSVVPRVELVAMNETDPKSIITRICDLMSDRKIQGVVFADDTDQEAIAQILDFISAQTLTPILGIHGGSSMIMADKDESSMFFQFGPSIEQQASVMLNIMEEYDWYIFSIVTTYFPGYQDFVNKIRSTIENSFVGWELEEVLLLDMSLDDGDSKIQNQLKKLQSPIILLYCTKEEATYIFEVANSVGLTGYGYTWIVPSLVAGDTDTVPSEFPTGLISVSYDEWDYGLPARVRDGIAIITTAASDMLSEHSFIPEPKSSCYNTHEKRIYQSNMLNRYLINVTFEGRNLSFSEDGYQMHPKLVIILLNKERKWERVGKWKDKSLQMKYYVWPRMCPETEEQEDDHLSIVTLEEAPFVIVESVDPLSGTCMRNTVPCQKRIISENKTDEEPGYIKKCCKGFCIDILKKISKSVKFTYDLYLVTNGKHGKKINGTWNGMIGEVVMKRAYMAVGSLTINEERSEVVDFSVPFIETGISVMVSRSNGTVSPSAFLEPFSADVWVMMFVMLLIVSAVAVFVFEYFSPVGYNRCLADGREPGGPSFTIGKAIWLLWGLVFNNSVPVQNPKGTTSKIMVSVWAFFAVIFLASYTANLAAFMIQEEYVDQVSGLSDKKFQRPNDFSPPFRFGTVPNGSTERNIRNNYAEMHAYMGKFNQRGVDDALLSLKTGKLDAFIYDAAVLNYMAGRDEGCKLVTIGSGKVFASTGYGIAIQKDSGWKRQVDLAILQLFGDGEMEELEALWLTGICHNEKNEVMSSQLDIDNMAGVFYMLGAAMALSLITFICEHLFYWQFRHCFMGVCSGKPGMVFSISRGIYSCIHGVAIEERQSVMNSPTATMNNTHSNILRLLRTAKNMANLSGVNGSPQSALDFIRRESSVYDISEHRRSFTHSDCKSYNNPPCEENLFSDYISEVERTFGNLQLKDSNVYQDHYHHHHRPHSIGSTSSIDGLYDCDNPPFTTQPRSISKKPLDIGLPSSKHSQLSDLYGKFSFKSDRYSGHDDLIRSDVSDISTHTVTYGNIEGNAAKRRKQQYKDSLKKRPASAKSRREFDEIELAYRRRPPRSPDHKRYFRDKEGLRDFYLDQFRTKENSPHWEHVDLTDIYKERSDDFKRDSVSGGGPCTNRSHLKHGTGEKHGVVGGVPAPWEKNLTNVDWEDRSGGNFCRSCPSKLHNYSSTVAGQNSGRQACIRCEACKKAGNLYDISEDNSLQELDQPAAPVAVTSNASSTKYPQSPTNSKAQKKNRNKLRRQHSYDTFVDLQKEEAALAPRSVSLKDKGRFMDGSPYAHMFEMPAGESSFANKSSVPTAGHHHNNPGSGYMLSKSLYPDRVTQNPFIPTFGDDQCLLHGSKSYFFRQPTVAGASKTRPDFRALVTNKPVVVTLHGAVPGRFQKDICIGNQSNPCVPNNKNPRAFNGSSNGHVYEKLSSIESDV
Protocol: (§1) Additionally, in the binding experiment this active compound displaces tritiated ifenprodil in the forebrain of rats from its binding site (for method see Schoemaker et al., European J. Pharmacol. 176 (1990), 249-250), which represents a receptor at the N-methyl-D-aspartate (NMDA) receptor/ion channel complex as a subtype of the glutamate receptors.
1. Ifenprodil binding (Schoemaker et al., 1990)
Homogenates of rat forebrain were centrifuged repeatedly. The last membrane […] (10 mg/ml) was used to determine the specific binding in the presence of 1.15 nM [^3H]-ifenprodil in 5 ml of buffer solution at pH 7.4. The unspecific binding was determined in the presence of 100 μM of ifenprodil.

rats [2] = experiment: Inhibition of apomorphine-induced stereotypical behaviour in rats; type: in vivo, rat; details: for ED50: Rattus norvegicus, sc, read-out: Inhibition of apomorphine-induced stereotypical behaviour in rats 50% inhibition/ED50 s.c. at:
Text: as §1
2. Inhibition of apomorphine-induced stereotypical behaviour in rats (Puech et al., 1978):
Stereotypical behaviour (unmotivated sniffling, licking, chewing, rhythmic movements with the forepaws) was induced by administration of 0.5 mg/kg s.c. of apomorphine. The intensity of the ensuing stereotypical behaviour was assessed every 5 minutes for each rat for a period of 30 minutes using a rating system (0-3). The total score was used as a measure of the occurence of the stereotypical behaviour.

rats [3] = experiment: Catalepsy induction in rats; type: in vivo, rat
Protocol: as §1
3. Catalepsy induction in rats (Stanley and Glick, 1976):
The occurrence of catalepsy in rats was measured by placing a hindpaw on a 3 cm high block and scoring every 5 minutes for a period of 30 minutes the time for which the rat stayed in this unnatural position using a rating system (score 0-3). The total score was used as a measure of the intensity of the catalepsy.

mice [4] = experiment: Apomorphine-induced climbing behaviour in mice; type: in vivo, mouse
rats [5] = experiment: Conditioned avoiding reaction in rats; type: in vivo, rat
rats [6] = experiment: Ultrasound vocalization after electric stimulation in rats; type: in vivo, rat; details: proof of the anxiolytic action
mice [7] = experiment: Spontaneous behaviour of mice (Irwin); type: in vivo, mouse
rats [8] = experiment: Spontaneous behaviour of rats (Irwin); type: in vivo, rat
[9] = rat forebrain homogenate, 1.15 nM [3H]-ifenprodil, pH 7.4, methanesulfonate salts, read-out: Ifenprodil binding in vitro 50% displacement/IC50 at:
[10] = apomorphine 0.5 mg/kg s.c., methanesulfonate salts

## Cc1ccc(N2C[C@H](CN3CCC(Cc4ccc(F)cc4)CC3)OC2=O)cc1 [R = CH3, reference compound]
[1]; [9]
  IC50: > 1000 nM
Rats [2]; [10]
  ED50: > 10 mg/kg

## COc1ccc(N2C[C@H](CN3CCC(Cc4ccc(F)cc4)CC3)OC2=O)cc1 [R = OCH3, (5S)-(−)-5-[4-(4-fluorobenzyl)-1-piperidinylmethyl]-3-(4-methoxyphenyl)-oxazolidin-2-one, reference compound]
[1]; [9]
  IC50: > 1000 nM
Rats [2]; [10]
  ED50: > 10 mg/kg

## O=C1O[C@@H](CN2CCC(Cc3ccc(F)cc3)CC2)CN1c1ccc(F)cc1 [R = F, reference compound]
[1]; [9]
  IC50: > 1000 nM
Rats [2]; [10]
  ED50: > 10 mg/kg

## O=C1OC(CN2CCC(Cc3ccc(F)cc3)CC2)CN1c1ccc(O)cc1 (stereo not shown) [formula I, 5-[4-(4-fluorobenzyl)piperidin-1-ylmethyl]-3-(4-hydroxy-phenyl) oxazolidin-2-one]
[1]; forebrain of rats
  displacement of tritiated ifenprodil from its binding site: displaces
Rats [2]
  apomorphine-induced stereotypical behaviour in rats (in words): inhibits
Rats [3]; rat, in vivo
  occurrence of catalepsy (in words): without the occurrence of catalepsy
Mice [4]
  apomorphine-induced climbing behaviour in mice: inhibits
Rats [5]
  conditioned avoiding reaction in rats: inhibits
Rats [6]
  ultrasound vocalization after electric stimulation in rats: inhibits
Mice [7]
  effect on the spontaneous behaviour of mice: depressive effect
Rats [8]
  effect on the spontaneous behaviour of rats: depressive effect

## O=C1O[C@@H](CN2CCC(Cc3ccc(F)cc3)CC2)CN1c1ccc(O)cc1 [R = OH, (5S)-(−)-5-[4-(4-fluorobenzyl)-1-piperidinylmethyl]-3-(4-hydroxyphenyl)oxazolidin-2-one]
[1]; in vitro, read-out: IC50 for the polyamine binding site
  IC50: 10 nM
[1]; [9]
  IC50: 10 nM
Rats [2]; s.c., apomorphine 0.5 mg/kg s.c., methanesulfonate salts
  Inhibition of apomorphine-induced stereotypical behaviour in rats 50% inhibition/ED50 s.c. at:: 2.8 mg/kg
Rats [3]; 30 mg/kg s.c., rat, methanesulfonate salt
  Catalepsy induction Rat: 0%
Rats [3]; in vivo animal models
  Catalepsy ED50: > 30 mg/kg
